In patent US7388111B2, “Non-nucleoside reverse transcriptase inhibitors” (Roche Palo Alto LLC, priority 2005, dated 2008):

Legend:
[1] = target: HIV-1 RT (Human immunodeficiency virus type 1 group M subtype B, UniProt P03366); experiment: HIV Reverse Transcriptase Assay: Inhibitor IC50 Determination; format: biochemical; conditions: purified recombinant enzyme, poly(rA)/oligo(dT)16 template-primer, 37° C. 30 min
Protocol: HIV Reverse Transcriptase Assay: Inhibitor IC50 Determination
HIV-1 RT assay was carried out in 96-well Millipore MultiScreen MADVNOB50 plates using purified recombinant enzyme and a poly(rA)/oligo(dT)16 template-primer in a total volume of 50 μL. The assay constituents were 50 mM Tris/HCl, 50 mM NaCl, 1 mM EDTA, 6 mM MgCl2, 5 μM dTTP, 0.15 μCi [^3H] dTTP, 5 μg/ml poly (rA) pre annealed to 2.5 μg/ml oligo (dT)16 and a range of inhibitor concentrations in a final concentration of 10% DMSO. Reactions were initiated by adding 4 nM HIV-1 RT and after incubation at 37° C. for 30 min, they were stopped by the addition of 50 μl ice cold 20% TCA and allowed to precipitate at 4° C. for 30 min. The precipitates were collected by applying vacuum to the plate and sequentially washing with 3×200 μl of 10% TCA and 2×200 μl 70% ethanol. Finally, the plates were dried and radioactivity counted in a Packard TopCounter after the addition of 25 μl scintillation fluid per well. IC50's were calculated by plotting % inhibition versus log10 inhibitor concentrations.

[2] = system: HIV-1; experiment: Anti-Viral Assay (method of Pauwels et al.); format: cell-based; conditions: Human immunodeficiency virus 1, read-out: Anti-Viral Assay
Protocol: Anti-viral assays were carried out by the method described by R. E. Pauwels et al. J. Virol. Methods 1988 20(4):309-322.

## Cc1cc(C#N)ccc1Oc1ccc(CC(=O)Nc2ccc(S(N)(=O)=O)cc2Br)c(C)c1C [Compound I-24, N-(2-Bromo-4-sulfamoyl-phenyl)-2-[4-(4-cyano-2-methyl-phenoxy)-2,3-dimethyl-phenyl]-acetamide]
[1]
  IC50: 202 nM
[2]
  EC50: 2.6 nM
